CCOc1ccc2ccccc2c1C(=O)O
solubility (mole fraction)
Details | 278.15 K | 283.15 K | 288.15 K | 293.15 K | 298.15 K | 303.15 K | 308.15 K | 313.15 K | 318.15 K | 323.15 K
in acetone | 0.0535 | 0.0606 | 0.0691 | 0.0781 | 0.089 | 0.0994 | 0.112 | 0.127 | 0.142 | 0.159
in acetonitrile | 0.00615 | 0.00747 | 0.00921 | 0.011 | 0.0135 | 0.0165 | 0.022 | 0.0254 | 0.0308 | 0.0378
in ethanol | 0.0268 | 0.0325 | 0.0392 | 0.0469 | 0.0565 | 0.0688 | 0.0836 | 0.101 | 0.119 | 0.136
in ethyl acetate | 0.015 | 0.0174 | 0.0204 | 0.0239 | 0.0279 | 0.0331 | 0.038 | 0.0447 | 0.0526 | 0.0606
in isobutanol | 0.0111 | 0.0138 | 0.0172 | 0.0208 | 0.0256 | 0.0322 | 0.0396 | 0.0508 | 0.0623 | 0.0779
in isopropanol | 0.0148 | 0.0181 | 0.0228 | 0.0287 | 0.036 | 0.0459 | 0.058 | 0.0733 | 0.0901 | 0.112
in isopropyl acetate | 0.0118 | 0.0136 | 0.0155 | 0.0185 | 0.0213 | 0.0245 | 0.029 | 0.0333 | 0.0389 | 0.0454
in methanol | 0.0304 | 0.037 | 0.0443 | 0.0552 | 0.0671 | 0.0821 | 0.0951 | 0.114 | 0.134 | 0.151
in methyl acetate | 0.0153 | 0.0181 | 0.0215 | 0.0254 | 0.0301 | 0.0356 | 0.0417 | 0.0495 | 0.0587 | 0.0693
in n-pentanol | 0.0174 | 0.0205 | 0.0248 | 0.0296 | 0.0356 | 0.0431 | 0.052 | 0.0632 | 0.0744 | 0.0902
in n-propanol | 0.0212 | 0.0236 | 0.0283 | 0.0345 | 0.0424 | 0.0511 | 0.0632 | 0.0779 | 0.092 | 0.114
in n-propyl acetate | 0.0129 | 0.0149 | 0.0177 | 0.0204 | 0.024 | 0.028 | 0.0322 | 0.0381 | 0.0445 | 0.0516
